US20210113692A1, “DOSING REGIMEN” (IMCLONE, LLC, priority 2016, published 2021)
Several values for one entry are separate records, joined by “and”; a condition that tells them apart may be missing. Equal entries are not always repeated. Entries after “also recorded” stand apart in the source; their conditions may differ. Where two headings read alike, the source gives them in different places.

What was measured:
[1] = tested on: patients with advanced STS; assay: Randomized Phase 2 Study of doxorubicin with or without olaratumab (NCT01185964): PFS, OS, ORR; type: in vivo, human; conditions: for median OS / median PFS: Phase 2 Study
Experimental: The Study is an open-label, multicenter, Phase 2 trial in which patients with advanced STS not amenable to treatment with surgery or radiotherapy are treated with olaratumab in combination with doxorubicin or doxorubicin alone.
Enrolled patients who meet all eligibility criteria are randomized 1:1 to one of two treatment arms. Arm A or Arm B. Arm A patients receive olaratumab in combination with doxorubicin (hereinafter the “Combination Arm”) and Ann B patients receive doxorubicin alone (hereinafter the “Doxonthicin Arm”), Randomization of this Study is performed according to a dynamic randomization algorithm using 4 pre-defined risk factors: PDGFRα expression (positive vs. negative), number of previous lines of treatment (0 vs. 1+ lines), histological tumor type (i.e., leiomyosarcoma vs. synovial sarcoma vs. other tumor type), and ECOG performance status (0-1 vs. 2). This dynamic randomization procedure is used to minimize imbalance between treatment groups. To determine tumor type and PDGFRCL expression in patients, a tumor sample from either a biopsy or previously archived tumor tissue sample is sufficient. Biopsy is required to be performed within 21 days prior to randomization; archived tissue sample must also be available within this timeframe.
Combination Arm: 66 patients randomized in the Combination Ann receive 15 mg/kg of olaratumab on Days 1 and 8 of each 21-day treatment cycle, in combination with 75 mg/m^2 doxorubicin administered on Day 1 of each cycle. (Note: if premedication is required prior to the first doxorubicin infusion, this is to be done after the completion of olaratumab infusion, not before the olaratumab infusion. This premedication may be administered within the hour that follows completion of the olaratumab infusion.) The actual (not planned) administration of each doxorubicin infusion defines Day 1 of each 21-day treatment cycle. The combination treatment just described is to continue for up to 8 cycles at the investigator's discretion. During Cycles 5 through 8, patients being treated with doxorubicin may also be administered 750 mg/m^2 dexrazoxane on Day 1 of each cycle, (at the investigator's discretion) prior to doxorubicin on Day 1 of each 21-day cycle. If the dose of doxorubicin is reduced at any point in the Study, the dose of dexrazoxane is to be reduced accordingly, maintaining a dosage ratio of 10:1. For example, if doxorubicin is reduced to 60 mg/m^2, then dexrazoxane is to be reduced to 600 mg/m^2. Doxorubicin may be administered within the hour that follows completion of the olaratumab infusion. In the absence of PD or other withdrawal criteria, patients in the Combination Arm who have completed eight cycles of therapy are to receive subsequent olaratumab monotherapy, administered on Days 1 and 8 of each 21-day cycle. Furthermore, if doxorubicin is discontinued (e.g., for reasons of toxicity) prior to end of cycle 8 and in the absence of withdrawal criteria, patients may continue to receive olaratumab monotherapy. For patients who discontinue olaratumab during the first 8 cycles of treatment, doxorubicin may be continued (for up to 8 cycles), provided no withdrawal criteria are met.
Doxorubicin Arm: 67 patients randomized in the Doxorubicin Arm receive 75 mg/m^2 doxorubicin on Day 1 of each cycle, for up to 8 cycles at the investigator's discretion. The actual (not planned) administration of each doxorubicin infusion defines Day 1 of each 21-day treatment cycle. During cycles 5 through 8, 750 mg/m^2 dexrazoxane may also be administered on Day 1 of each cycle, (at the investigator's discretion) prior to doxorubicin on Day 1 of each 21-day cycle. If the dose of doxorubicin is reduced at any point in the Study, the dose of dexrazoxane is to be reduced accordingly, maintaining a dosage ratio of 10:1. For example, if doxorubicin is reduced to 60 mg/m^2, then dexrazoxane is to be reduced to 600 mg/m^2. […]

[2] = tested on: patients with advanced STS; assay: Matched case-control exposure-response analysis of OS and PFS across quartiles of olaratumab serum levels; type: in vivo, human
Experimental: (§1) Pharmacokinetics and Exposure-response Analysis of The “Study”: The PFS, OS, PK and safety data from patients who received olaratumab in the Study, as discussed above, were analyzed.
(§2) The effect of olaratumab serum levels is explored using average serum concentration (Cavg) and trough serum concentration after cycle 1 (Cmin1). The PFS and OS data are analyzed using a matched case-control (MCC) analysis across quartiles of olaratumab serum levels and a time-to-event (survival) model with a constant baseline hazard and a Hill function to describe the effect of olaratumab. The rate of treatment-emergent adverse events (TEAEs) is compared across quartiles of olaratumab exposure.

[3] = parameters: species or system human; conditions: in vivo
Excerpt: The rate of treatment-emergent adverse events (TEAEs) is compared across quartiles of olaratumab exposure.

[4] = tested on: patients with advanced STS; assay: Time-to-event (survival) model of the effect of olaratumab serum levels on PFS/OS hazard; type: in vivo, human; conditions: Cmin1-based and Cavg-based models
Excerpt: Further, FIG. 1, illustrates the predicted effect of olaratumab on HR for PFS. In FIG. 1. PFS as predicted by Cmin1-based model is shown in the left panel and the Cavg-based model is shown in the right panel. The solid red lines describe the change in HR as a function of Cmin1 and Cavg; the grey histograms describe the distribution of olaratumab Cmin1 and Cavg in the Study experimental arm together with their quartiles (dashed blue lines) the green dashed lines indicate ECmin150 and ECavg50.

[5] = Population PK (PopPK) model using PK data from 4 Phase 2 studies; type: in vivo, human; conditions: irrespective of indication
Excerpt: • Population Pharmacokinetics Analysis of the Four Phase 2 Clinical Studies: A population PK (PopPK) model was developed using PK data from 4 Phase 2 studies (www.clinicaltrials.gov study numbers NCT00918203 (A Randomized Phase 2 Study of Human Anti-PDGFRα. Monoclonal Antibody (IMC-3G3) With Paclitaxel/Carboplatin or Paclitaxel/Carboplatin Alone in Previously Untreated Patients With Locally Advanced or Metastatic Non-Small Cell Lung Cancer), NCT01185964 (A Phase 1b/2 Randomized Phase 2 Study Evaluating the Efficacy of Doxorubicin With or Without a Human Anti-PDGFRα Monoclonal Antibody (IMC-3G3) in the Treatment of Advanced Soft Tissue Sarcoma), NCT00895180 (An Open Label, Phase 2 Study Evaluating the Safety and Efficacy of IMC-3G3 or MC-1121B in Patients With Recurrent Glioblastoma Multiforme), and NCT01316263 (A Phase 2 Study of a Human Anti-PDGFRα Monoclonal Antibody (IMC-3G3) in Previously Treated Patients With Unresectable and/or Metastatic Gastrointestinal Stromal Tumors (GIST)). […] A Randomized, Double Blind, Placebo-Controlled, Phase 3 Trial of Doxorubicin Plus Olaratumab Versus Doxorubicin Plus Placebo in Patients With Advanced Soft Tissue Sarcoma (the “Phase 3 Study”) The present invention is being further tested in the Phase 3 Study (trial number NCT02451943 available on clinicaltrials.gov https://clinicaltrials.gov/ct2/show/NCT02451943?term=ANNOUNCE&rank=1).

[6] = Olaratumab serum concentrations (pharmacokinetics) in the Study
Experimental: Serum levels can be measured by an enzyme-linked immunosorbent assay; a test that uses antibodies and color change to identify and quantify a substance.
as §1, §2

[7] = Cavg Q1 (56 < 134.4) μg/mL, 15 patients per group
[8] = Cavg Q3 (≥175.2-<249.9) μg/mL, 15 patients per group
[9] = Cavg Q4 (≥249.9-347.3) μg/mL, 16 patients per group
[10] = Cmin1 Q1 (12.3-<62.8) μg/mL, 15 patients per group
[11] = Cmin1 Q2 (≥62.8-<86.9) μg/mL, 16 patients per group
[12] = Cmin1 Q4 (≥105.6-188.1) μg/mL, 16 patients per group

COc1cccc2c1C(=O)c1c(O)c3c(c(O)c1C2=O)C[C@@](O)(C(=O)CO)C[C@@H]3O[C@H]1C[C@H](N)[C@H](O)[C@H](C)O1 [doxorubicin]
median OS ([1]; final analysis): 14.7 months | median PFS ([1]; final analysis): 4.1 months | median progression-free survival, blinded independent retrospective review ([1]; in vivo): 4.4 months | objective response rate, independent assessment ([1]; in vivo): 7.5% | objective response rate ([1]; investigator assessment, RECIST 1.1): 11.9% | Number of events, overall survival [2, 7]: 15/13 | Number of events, progression-free survival [2, 7]: 15/14 | Number of events, progression-free survival ([2]; Cavg Q2 (≥134.4-<175,2) μg/mL, 16 patients per group): 16/10 | Number of events, overall survival ([2]; Cavg Q2 (≥134.4-<175.2) μg/mL, 16 patients per group): 16/14 | Number of events, overall survival [2, 8]: 15/7 | Number of events, progression-free survival [2, 8]: 15/8 | Number of events, overall survival [2, 9]: 16/11 | Number of events, progression-free survival [2, 9]: 16/12 | Number of events, overall survival [2, 10]: 15/12 | Number of events, progression-free survival [2, 10]: 15/11 | Number of events, overall survival [2, 11]: 16/13 | Number of events, progression-free survival [2, 11]: 16/9 | Number of events, overall survival ([2]; Cmin1 Q3 (≥86.9-<105.6) μg/mL, 15 patients per group): 15/8 | Number of events, progression-free survival ([2]; Cmin1 Q3 (≥86.9=<105.6) μg/mL, 15 patients per group): 15/10 | Number of events, overall survival [2, 12]: 16/10 | Number of events, progression-free survival [2, 12]: 16/11 | Mucositis Grade <=2 (consolidated TEAE), number of patients ([3]; human): 20 | Mucositis Grade <=2, % (consolidated TEAE) ([3]; human): (30.8) % | Mucositis Grade >2 (consolidated TEAE), number of patients ([3]; human): 3 | Mucositis Grade >2, % (consolidated TEAE) ([3]; human): (4.6) % | Mucositis Grade >=4 (consolidated TEAE), number of patients ([3]; human): 0 | Neutropenia Grade <=2 (consolidated TEAE), number of patients ([3]; human): 3 | Neutropenia Grade <=2, % (consolidated TEAE) ([3]; human): (4.6) % | Neutropenia Grade >2 (consolidated TEAE), number of patients ([3]; human): 22 | Neutropenia Grade >2, % (consolidated TEAE) ([3]; human): (33.8) % | Neutropenia Grade >=4 (consolidated TEAE), number of patients ([3]; human): 17 | Neutropenia Grade >=4, % (consolidated TEAE) ([3]; human): (26.2) % | TEAE Overall Grade <=2, % ([3]; human): (29.2) % | TEAE Overall Grade <=2, number of patients ([3]; human): 19 | TEAE Overall Grade >2, % ([3]; human): (69.2) % | TEAE Overall Grade >2, number of patients ([3]; human): 45 | TEAE Overall Grade >=4, % ([3]; human): (30.8) % | TEAE Overall Grade >=4, number of patients ([3]; human): 20

olaratumab
stratified HR for overall survival ([1]; Combination Arm vs Doxorubicin Arm, final analysis): 0.46 | median OS ([1]; final analysis): 26.5 months | median PFS ([1]; final analysis): 6.6 months | stratified HR for progression-free survival ([1]; olaratumab plus doxorubicin vs doxorubicin, final analysis): 0.672 | OS improvement in the lowest exposure quartile ([2]; Cmin1<63 μg/mL, N=15): no improvement in OS; also recorded: did not show OS improvement; also recorded: did not have OS | PFS and OS improvement in the upper quartiles of olaratumab serum exposure ([2]; regardless of Cmin at end of cycle 1 or average serum concentration): greater improvement in progression-free survival and overall survival | predicted effect of olaratumab on HR for PFS (FIG. 1) [4]: not predicted to change until the Cmin1 or Cavg reaches values corresponding to the 25th percentile of their distribution in the study | Mucositis Grade <=2 (consolidated TEAE), number of patients [3]: 32 | Mucositis Grade <=2, % (consolidated TEAE) [3]: (51.6) % | Mucositis Grade >2 (consolidated TEAE), number of patients [3]: 2 | Mucositis Grade >2, % (consolidated TEAE) [3]: (3.2) % | Mucositis Grade >=4 (consolidated TEAE), number of patients [3]: 0 | Neutropenia Grade <=2 (consolidated TEAE), number of patients [3]: 3 | Neutropenia Grade <=2, % (consolidated TEAE) [3]: (4.8) % | Neutropenia Grade >2 (consolidated TEAE), number of patients [3]: 35 | Neutropenia Grade >2, % (consolidated TEAE) [3]: (56.5) % | Neutropenia Grade >=4 (consolidated TEAE), number of patients [3]: 23 | Neutropenia Grade >=4, % (consolidated TEAE) [3]: (37.1) % | TEAE Overall Grade <=2, % [3]: (19.4) % | TEAE Overall Grade <=2, number of patients [3]: 12 | TEAE Overall Grade >2, % [3]: (79.0) % | TEAE Overall Grade >2, number of patients [3]: 49 | TEAE Overall Grade >=4, % [3]: (40.3) % | TEAE Overall Grade >=4, number of patients [3]: 25 | cycle in which steady-state olaratumab serum levels are achieved (PopPK model) [5]: ≥ 3 Cycle | mean maximum serum concentration (Cmax) after the first dose ([6]; 15 mg/kg, cycle 1): 284 µg/mL | mean maximum serum concentration (Cmax) after the second dose ([6]; 15 mg/kg, cycle 1): 293 µg/mL | Cavg range ([6]; Overall, n = 62, average over entire treatment): 56.0 to 347.3 µg/mL | Cmin1 range ([6]; Overall, n = 62, trough at the end of Cycle 1): 12.3 to 188.1 µg/mL | mean trough serum concentration (Cmin) at the end of the cycle ([6]; cycle 1): 66.5 µg/mL | individual apparent terminal elimination half-life ([6]; during cycle 3): 6.67 days and 14.4 days | cycle in which steady state is reached ([6]; in vivo): 3 cycle
